Tests used:
[1] = target: T1, recombinant PTP1B catalytic domain (Homo sapiens, UniProt P18031); assay: PTP1B inhibitory activity assay (pNPP hydrolysis); type: biochemical; conditions: pNPP substrate, 30 °C, pH 6.5; IC50 ≥ 50 μM was considered inactive
T1 construct: The recombinant PTP1B catalytic domain was expressed and purified according to a previous report; made in house
T1 sequence (P18031 3-277 limits assumed): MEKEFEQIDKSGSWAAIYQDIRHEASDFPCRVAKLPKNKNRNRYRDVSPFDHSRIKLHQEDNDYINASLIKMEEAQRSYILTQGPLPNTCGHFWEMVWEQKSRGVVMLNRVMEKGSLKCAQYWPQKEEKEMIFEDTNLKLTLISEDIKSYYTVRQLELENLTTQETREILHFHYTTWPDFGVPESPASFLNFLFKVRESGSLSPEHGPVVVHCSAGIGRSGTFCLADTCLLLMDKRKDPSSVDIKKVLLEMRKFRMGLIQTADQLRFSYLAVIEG
Experimental: The recombinant PTP1B catalytic domain was expressed and purified according to a previous report. The enzymatic activities of the PTP1B catalytic domain were determined at 30 °C by monitoring the hydrolysis of pNPP. Dephosphorylation of pNPP generated the product pNP, which was monitored at an absorbance of 405 nm with an EnVision multilabel plate reader (Perkin–Elmer Life Sciences, Boston, MA). In a typical […] assay mixture containing 50 mmol/L 3-morpholinopropanesulfonic acid, pH 6.5, 2 mmol/L pNPP, and 30 nmol/L recombinant PTP1B, activities were continuously monitored and the initial rate of hydrolysis was determined by using the early linear region of the enzymatic reaction kinetic curve.

[2] = test system: NF-κB signaling pathway in stable HEK293/NF-κB cells; assay: NF-κB signaling pathway inhibitory activity assay (luciferase reporter, TNF-α stimulation); type: cell-based; conditions: Homo sapiens, luciferase read after 6 h
Experimental: NF-κB signaling pathway inhibitory activity was evaluated according to the previously reported protocol. Stable HEK293/NF-κB cells were plated into 384-well plates at a concentration of approximate 2500 cells per well. After culturing overnight, compounds were added to the medium at a final concentration of 0.1 μg/mL. HEK293/NF-κB cells were seeded into 96-well cell culture plates (Corning, NY, USA) and allowed to grow for 24 h. The cells were then treated with compounds, followed by stimulation with TNF-α. 6 h later, the luciferase substrate was added to each well, and the released luciferin signal was detected using an EnVision microplate reader. The IC50 was calculated with Prism 4 software (Graphpad, San Diego, CA) from the nonlinear curve fitting of the percentage of inhibition (% inhibition) versus the inhibitor concentration [I] by using the following equation: % inhibition = 100/(1 + [IC50/[I]]^k), where k is the Hill coefficient.

Row | Structure (SMILES) | IC50 [1] [µM] | IC50 (μM) PTP1B [1] | IC50 [2] [µM]
1 | Cc1ccc(C2(C)CCC(=CBr)C2C)c(O)c1 (stereo not drawn) [compound 3, ent-laurenisol] | > 50 | inactive | –
2 | CC(C)C[C@H](NC(=O)[C@H](Cc1ccccc1)NC(=O)c1cnccn1)B(O)O [bortezomib, reference compound] | – | – | 14
3 | Cc1cc(O)c(C2(C)CCC(=CBr)C2C)cc1Br (stereo not shown) [compound 4, clalaurenol B] | 15.6 | – | 7.3
4 | C=C1CCC2C(C3C(C)CCC13O)C2(C)C (stereo not shown) [compound 6, claaromadendrene] | > 50 | – | –
5 | Cc1cc(Br)c(C2(C)CCC(=CBr)C2C)cc1O (stereo not shown) [compound 1, isobromolaurenisol] | 18.8 | – | 19.9
6 | C=C1CCC(C)(c2cc(O)c(C)cc2Br)C1C (stereo not shown) [compound 2, clalaurenol A] | 21.8 | – | 6.8

Continued, in another order:

Row | IC50 [1] [µM] | IC50 (μM) PTP1B [1] | Structure (SMILES) | IC50 [2] [µM]
7 | > 50 | – | C/C1=C\CC(C)(C)/C=C/C[C@@]2(C)O[C@@H]2CC1 [compound 8, humulene epoxide II] | –
8 | > 50 | – | Cc1cc(Br)c([C@]2(C)CC=CC2(C)C)cc1O [compound 5, cupalaurenol] | –
9 | > 50 | – | C=C1CC[C@H]2[C@@H]([C@H]3[C@@H](C)CC[C@@]13O)C2(C)C [compound 7, 1-hydroxyalloaromadendrene] | –
